Some targets named below: SRPK1 (Homo sapiens, UniProt Q96SB4); MARK3 (Homo sapiens, UniProt P27448); CaMK1d (Homo sapiens, UniProt Q8IU85); GSK3B (Homo sapiens, UniProt P49841); CaMKK2 (Homo sapiens, UniProt Q96RR4); JNK3 (Homo sapiens, UniProt P53779); PIM3 (Homo sapiens, UniProt Q86V86); EpHA5 (Homo sapiens, UniProt P54756).
Holding throughout (assay): biochemical
A further assay has as its target T1, DMPK1 (Homo sapiens, UniProt Q09013).
T1 sequence (Q09013 1-629): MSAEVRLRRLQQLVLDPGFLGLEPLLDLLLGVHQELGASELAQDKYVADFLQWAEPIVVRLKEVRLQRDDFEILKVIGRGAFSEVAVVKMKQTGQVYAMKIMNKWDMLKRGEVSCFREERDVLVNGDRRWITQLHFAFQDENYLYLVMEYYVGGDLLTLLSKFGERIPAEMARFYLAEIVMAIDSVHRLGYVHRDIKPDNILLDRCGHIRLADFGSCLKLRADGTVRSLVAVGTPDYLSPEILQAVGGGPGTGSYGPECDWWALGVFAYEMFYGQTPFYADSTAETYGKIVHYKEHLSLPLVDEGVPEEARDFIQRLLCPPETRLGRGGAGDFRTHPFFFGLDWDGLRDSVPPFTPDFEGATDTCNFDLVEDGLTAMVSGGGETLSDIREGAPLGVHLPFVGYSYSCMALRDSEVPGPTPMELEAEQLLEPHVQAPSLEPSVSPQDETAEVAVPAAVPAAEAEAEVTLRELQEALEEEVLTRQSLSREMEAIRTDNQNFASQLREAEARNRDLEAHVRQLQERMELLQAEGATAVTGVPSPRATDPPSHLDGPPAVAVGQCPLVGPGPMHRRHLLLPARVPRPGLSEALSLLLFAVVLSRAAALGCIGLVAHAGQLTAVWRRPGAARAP

The target in another assay is T2, PLK4 (Homo sapiens, UniProt O00444).
T2 sequence (O00444 1-970): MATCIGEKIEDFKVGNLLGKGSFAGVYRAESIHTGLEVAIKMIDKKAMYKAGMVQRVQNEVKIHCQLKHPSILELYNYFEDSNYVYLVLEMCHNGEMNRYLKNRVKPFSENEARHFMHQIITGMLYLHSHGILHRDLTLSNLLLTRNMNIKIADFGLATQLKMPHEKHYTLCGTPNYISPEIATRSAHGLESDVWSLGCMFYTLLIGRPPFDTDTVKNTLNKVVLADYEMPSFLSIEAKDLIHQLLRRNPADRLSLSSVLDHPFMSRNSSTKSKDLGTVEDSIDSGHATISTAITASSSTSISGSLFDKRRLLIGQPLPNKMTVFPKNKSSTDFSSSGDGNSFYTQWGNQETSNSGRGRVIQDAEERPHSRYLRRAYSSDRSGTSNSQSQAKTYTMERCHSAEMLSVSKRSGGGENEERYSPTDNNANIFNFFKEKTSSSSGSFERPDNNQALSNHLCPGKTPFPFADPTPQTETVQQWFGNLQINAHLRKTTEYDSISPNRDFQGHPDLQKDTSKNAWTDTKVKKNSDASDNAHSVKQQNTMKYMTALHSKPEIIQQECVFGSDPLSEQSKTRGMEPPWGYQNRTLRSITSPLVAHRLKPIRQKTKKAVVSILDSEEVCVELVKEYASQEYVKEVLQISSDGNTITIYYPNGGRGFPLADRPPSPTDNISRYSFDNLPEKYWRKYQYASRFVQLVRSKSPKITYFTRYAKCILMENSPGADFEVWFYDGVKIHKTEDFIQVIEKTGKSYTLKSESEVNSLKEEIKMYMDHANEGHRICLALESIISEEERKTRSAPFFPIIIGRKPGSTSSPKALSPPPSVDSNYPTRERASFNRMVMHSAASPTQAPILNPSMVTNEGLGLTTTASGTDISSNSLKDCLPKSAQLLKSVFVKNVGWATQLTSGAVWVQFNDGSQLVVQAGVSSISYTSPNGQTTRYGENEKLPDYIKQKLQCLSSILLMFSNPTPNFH

A further assay addresses T3, Erk7 (Homo sapiens, UniProt Q8TD08).
T3 sequence (Q8TD08 1-544): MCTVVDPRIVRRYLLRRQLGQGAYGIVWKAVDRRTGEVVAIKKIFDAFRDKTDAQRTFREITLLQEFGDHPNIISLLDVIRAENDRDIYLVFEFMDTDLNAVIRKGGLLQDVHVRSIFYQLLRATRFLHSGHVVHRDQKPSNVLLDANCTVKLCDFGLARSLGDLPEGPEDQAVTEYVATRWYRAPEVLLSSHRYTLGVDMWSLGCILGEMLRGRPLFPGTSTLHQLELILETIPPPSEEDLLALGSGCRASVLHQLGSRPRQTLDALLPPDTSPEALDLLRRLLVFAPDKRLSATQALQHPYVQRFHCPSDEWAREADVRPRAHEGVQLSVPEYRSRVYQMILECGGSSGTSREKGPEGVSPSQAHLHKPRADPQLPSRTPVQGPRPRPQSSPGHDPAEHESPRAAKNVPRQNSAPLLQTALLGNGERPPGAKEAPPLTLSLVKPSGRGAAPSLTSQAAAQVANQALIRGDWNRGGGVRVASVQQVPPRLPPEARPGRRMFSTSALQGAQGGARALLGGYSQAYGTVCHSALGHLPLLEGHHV

SMILES strings stand for the structures. Where two headings read alike, the source gives them in different places.

Sequence of CaMKK2 (Q96RR4 whole entry): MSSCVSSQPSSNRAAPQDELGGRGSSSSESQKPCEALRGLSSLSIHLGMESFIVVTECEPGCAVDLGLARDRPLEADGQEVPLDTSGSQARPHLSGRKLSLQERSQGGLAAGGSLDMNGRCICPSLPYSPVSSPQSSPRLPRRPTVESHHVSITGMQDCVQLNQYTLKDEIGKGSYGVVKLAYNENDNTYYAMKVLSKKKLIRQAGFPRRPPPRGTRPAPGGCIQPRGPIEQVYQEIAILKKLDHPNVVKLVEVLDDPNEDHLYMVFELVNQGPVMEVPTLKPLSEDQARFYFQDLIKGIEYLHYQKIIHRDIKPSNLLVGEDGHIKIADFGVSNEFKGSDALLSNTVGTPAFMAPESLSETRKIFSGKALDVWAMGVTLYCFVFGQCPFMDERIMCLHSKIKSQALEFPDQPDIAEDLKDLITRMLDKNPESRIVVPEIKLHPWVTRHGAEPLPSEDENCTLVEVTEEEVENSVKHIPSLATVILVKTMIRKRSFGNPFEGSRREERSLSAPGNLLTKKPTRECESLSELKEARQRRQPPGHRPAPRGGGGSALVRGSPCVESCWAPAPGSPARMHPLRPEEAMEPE
Sequence of SRPK1 (Q96SB4 whole entry): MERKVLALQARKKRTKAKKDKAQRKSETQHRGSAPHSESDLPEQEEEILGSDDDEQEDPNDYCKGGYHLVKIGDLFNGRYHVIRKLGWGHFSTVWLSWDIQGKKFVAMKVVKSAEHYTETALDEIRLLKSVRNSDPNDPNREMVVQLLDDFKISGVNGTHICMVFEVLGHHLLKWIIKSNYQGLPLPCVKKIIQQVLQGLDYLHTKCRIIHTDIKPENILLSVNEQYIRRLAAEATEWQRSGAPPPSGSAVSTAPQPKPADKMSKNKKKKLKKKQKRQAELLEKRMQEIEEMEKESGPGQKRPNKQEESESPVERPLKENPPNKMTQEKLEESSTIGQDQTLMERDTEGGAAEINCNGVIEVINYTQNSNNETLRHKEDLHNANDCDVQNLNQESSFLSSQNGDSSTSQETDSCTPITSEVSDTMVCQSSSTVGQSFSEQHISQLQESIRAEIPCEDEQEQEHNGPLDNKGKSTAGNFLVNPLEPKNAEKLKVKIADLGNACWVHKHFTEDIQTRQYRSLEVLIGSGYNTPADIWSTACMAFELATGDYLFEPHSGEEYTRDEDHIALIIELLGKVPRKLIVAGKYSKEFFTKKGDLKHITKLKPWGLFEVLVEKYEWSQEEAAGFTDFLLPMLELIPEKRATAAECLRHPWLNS
Sequence of MARK3 (P27448 whole entry): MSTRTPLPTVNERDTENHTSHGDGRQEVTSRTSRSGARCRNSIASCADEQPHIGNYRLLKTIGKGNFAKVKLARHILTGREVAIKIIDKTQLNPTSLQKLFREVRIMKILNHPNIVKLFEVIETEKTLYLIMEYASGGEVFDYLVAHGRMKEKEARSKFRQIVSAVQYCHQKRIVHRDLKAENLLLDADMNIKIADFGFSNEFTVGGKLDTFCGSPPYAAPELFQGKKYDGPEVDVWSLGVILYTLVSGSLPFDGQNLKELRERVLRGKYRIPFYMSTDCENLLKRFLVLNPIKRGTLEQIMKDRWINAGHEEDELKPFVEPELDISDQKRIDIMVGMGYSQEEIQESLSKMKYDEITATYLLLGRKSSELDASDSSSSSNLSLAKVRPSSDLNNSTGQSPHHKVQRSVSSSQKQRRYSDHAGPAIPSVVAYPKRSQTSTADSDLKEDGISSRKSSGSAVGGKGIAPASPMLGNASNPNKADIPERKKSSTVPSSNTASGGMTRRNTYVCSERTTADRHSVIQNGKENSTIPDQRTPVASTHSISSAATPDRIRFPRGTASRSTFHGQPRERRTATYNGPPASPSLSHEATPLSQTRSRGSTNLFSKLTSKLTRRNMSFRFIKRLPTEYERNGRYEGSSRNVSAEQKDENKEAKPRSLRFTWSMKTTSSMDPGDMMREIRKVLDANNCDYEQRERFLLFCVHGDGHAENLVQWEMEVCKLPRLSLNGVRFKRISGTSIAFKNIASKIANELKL
Sequence of GSK3B (P49841 whole entry): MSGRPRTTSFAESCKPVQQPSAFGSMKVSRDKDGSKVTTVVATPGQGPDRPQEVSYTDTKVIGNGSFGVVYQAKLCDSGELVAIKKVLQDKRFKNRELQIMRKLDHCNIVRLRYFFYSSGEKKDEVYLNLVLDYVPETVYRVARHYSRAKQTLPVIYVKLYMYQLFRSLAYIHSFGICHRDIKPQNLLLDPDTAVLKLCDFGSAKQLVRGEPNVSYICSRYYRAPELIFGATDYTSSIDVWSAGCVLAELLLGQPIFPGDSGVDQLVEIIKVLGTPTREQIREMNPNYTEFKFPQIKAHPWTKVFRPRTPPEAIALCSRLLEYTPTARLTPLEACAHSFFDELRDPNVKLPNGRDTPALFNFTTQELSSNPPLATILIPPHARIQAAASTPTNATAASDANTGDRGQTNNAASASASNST
Sequence of JNK3 (P53779 whole entry): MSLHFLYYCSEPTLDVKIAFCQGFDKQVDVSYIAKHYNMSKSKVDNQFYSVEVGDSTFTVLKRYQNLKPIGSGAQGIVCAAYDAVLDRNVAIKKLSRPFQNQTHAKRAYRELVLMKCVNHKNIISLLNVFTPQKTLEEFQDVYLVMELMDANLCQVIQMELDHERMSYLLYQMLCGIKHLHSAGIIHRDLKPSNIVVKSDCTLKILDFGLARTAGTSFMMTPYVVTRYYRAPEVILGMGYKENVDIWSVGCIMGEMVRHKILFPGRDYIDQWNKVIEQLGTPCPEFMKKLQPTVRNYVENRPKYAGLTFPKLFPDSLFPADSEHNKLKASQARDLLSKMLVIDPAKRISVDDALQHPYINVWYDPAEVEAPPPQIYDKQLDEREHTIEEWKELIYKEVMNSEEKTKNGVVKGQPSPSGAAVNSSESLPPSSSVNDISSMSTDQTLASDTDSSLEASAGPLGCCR
Sequence of CaMK1d (Q8IU85 whole entry): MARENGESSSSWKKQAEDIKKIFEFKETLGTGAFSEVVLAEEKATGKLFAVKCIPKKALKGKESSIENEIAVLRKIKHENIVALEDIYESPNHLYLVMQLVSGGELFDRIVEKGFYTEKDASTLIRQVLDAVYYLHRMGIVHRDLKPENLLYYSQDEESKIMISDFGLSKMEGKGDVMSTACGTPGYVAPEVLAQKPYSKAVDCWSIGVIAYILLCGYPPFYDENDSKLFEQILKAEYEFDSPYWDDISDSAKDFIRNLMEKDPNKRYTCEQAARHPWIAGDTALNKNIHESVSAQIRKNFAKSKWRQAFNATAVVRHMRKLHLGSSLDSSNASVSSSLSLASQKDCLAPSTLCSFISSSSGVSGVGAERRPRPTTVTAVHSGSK
Sequence of EpHA5 (P54756 whole entry): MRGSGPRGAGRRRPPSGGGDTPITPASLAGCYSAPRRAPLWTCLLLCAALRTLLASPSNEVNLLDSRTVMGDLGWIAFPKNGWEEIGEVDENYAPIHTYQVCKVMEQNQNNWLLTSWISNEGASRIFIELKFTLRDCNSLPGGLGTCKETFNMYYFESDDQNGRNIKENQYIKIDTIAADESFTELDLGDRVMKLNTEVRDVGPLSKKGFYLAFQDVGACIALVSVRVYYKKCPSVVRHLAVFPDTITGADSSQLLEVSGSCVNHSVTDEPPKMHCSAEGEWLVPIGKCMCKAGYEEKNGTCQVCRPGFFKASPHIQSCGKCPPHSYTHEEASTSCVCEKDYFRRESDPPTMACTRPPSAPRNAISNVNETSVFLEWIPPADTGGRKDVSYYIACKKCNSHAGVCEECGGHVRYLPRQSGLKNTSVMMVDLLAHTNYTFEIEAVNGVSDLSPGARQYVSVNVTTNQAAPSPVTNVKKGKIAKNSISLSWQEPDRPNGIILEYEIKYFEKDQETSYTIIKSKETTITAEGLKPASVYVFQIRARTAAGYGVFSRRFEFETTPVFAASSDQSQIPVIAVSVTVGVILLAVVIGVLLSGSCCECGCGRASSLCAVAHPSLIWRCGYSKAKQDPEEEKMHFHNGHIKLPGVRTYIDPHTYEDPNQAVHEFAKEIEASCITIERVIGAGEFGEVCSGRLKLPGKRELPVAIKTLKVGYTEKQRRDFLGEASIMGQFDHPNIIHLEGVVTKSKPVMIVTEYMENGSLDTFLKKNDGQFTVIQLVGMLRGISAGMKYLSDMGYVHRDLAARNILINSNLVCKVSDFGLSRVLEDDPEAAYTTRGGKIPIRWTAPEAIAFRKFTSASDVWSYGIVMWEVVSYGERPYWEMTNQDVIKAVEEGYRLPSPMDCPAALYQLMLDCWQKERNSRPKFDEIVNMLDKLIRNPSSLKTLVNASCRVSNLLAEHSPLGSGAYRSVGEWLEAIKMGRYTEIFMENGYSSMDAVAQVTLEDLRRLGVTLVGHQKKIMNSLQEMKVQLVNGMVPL

As for `CNc1ncc2cc(-c3ccccc3Cl)c(=O)n(CCCCN)c2n1` [compound 4, 8-(4-Aminobutyl)-6-(2-chlorophenyl)-2-(methylamino)pyrido[2,3-d]pyrimidin-7(8H)-one], the ΔTm at 10 µM on SRPK1 (read-out: dTm MR21 (4)) was found to be 0.6 °C; at DMPK1 (read-out: dTm MR21 (4)) it was 2.8 °C; on PLK4 (read-out: dTm MR21 (4)), 0 °C; at MARK3 (read-out: dTm MR21 (4)), 5.3 °C; on CaMK1d (read-out: dTm MR21 (4)), 2.7 °C; on GSK3B (read-out: dTm MR21 (4)), 2.7 °C. For the same compound, the ΔTm at 10 µM at CaMKK2 (read-out: dTm MR21 (4)) is 0.6 °C; on Erk7 (read-out: dTm MR21 (4)), 0.8 °C; at JNK3 (read-out: dTm MR21 (4)) it was 2.7 °C; at PIM3 (read-out: dTm MR21 (4)) it was -0.8 °C.

On to `CNc1ncc2cc(-c3cc(Br)ccc3Cl)c(=O)n(CCCCN)c2n1` [compound 6, 8-(4-Aminobutyl)-6-(5-bromo-2-chlorophenyl)-2-(methylamino)pyrido[2,3-d]pyrimidin-7(8H)-one], for which the ΔTm at 10 µM on EpHA5 (read-out: dTm 6) was determined as 4.5 °C; at SRPK1 (read-out: dTm 6) it was 0.1 °C; at DMPK1 (read-out: dTm 6), 1.2 °C; at PLK4 (read-out: dTm 6), 0.4 °C; on MARK3 (read-out: dTm 6) it was 3.5 °C; on CaMK1d (read-out: dTm 6), 2.1 °C. Moreover, the ΔTm at 10 µM at GSK3B (read-out: dTm 6) is 1 °C; at CaMKK2 (read-out: dTm 6) it was -0.2 °C; on Erk7 (read-out: dTm 6) it was 0.3 °C; at JNK3 (read-out: dTm 6) it was 1.1 °C; on PIM3 (read-out: dTm 6), -0.4 °C.

On to `CNc1ncc2cc(-c3ccc(-c4cccc(C)n4)cc3Cl)c(=O)n(CC3OCC(N)CO3)c2n1` (stereo not shown) [compound 2, G-5555], for which the “dTm G-5555 (2)” value was 2.7 °C at EpHA5 (10 µM, binder); -0.4 °C on SRPK1 (10 µM, binder); -0.3 °C at DMPK1 (10 µM, binder); 3.4 °C at PLK4 (10 µM, binder); 8.8 °C on MARK3 (10 µM, binder); 4.5 °C at CaMK1d (10 µM, binder). Besides, the “dTm G-5555 (2)” value was 0.1 °C on GSK3B (10 µM, binder); 1.1 °C at CaMKK2 (10 µM, binder); 0.3 °C at Erk7 (10 µM, binder); 1.8 °C on JNK3 (10 µM, binder); -1.8 °C at PIM3 (10 µM, binder).

For `CNc1ncc2cc(-c3cc(F)ccc3F)c(=O)n(CCCCN)c2n1` [compound 5, 8-(4-Aminobutyl)-6-(2,5-difluorophenyl)-2-(methylamino)pyrido[2,3-d]pyrimidin-7(8H)-one], the ΔTm at 10 µM was 0.3 °C at SRPK1 (read-out: dTm MR22 (5)); 0.9 °C at DMPK1 (read-out: dTm MR22 (5)); 0.3 °C at PLK4 (read-out: dTm MR22 (5)); 1.1 °C on MARK3 (read-out: dTm MR22 (5)); -1.2 °C at CaMK1d (read-out: dTm MR22 (5)); 1.6 °C on GSK3B (read-out: dTm MR22 (5)). The figures for the ΔTm at 10 µM on CaMKK2 (read-out: dTm MR22 (5)), on Erk7 (read-out: dTm MR22 (5)) and at PIM3 (read-out: dTm MR22 (5)) were -0.1 °C, -1.5 °C and -0.6 °C, respectively.

With `CNc1ncc2cc(-c3cc(Br)ccc3Cl)c(=O)n(C[C@H]3OC[C@H](N)CO3)c2n1` [compound 7, 8-(((2r,5r)-5-Amino-1,3-dioxan-2-yl)methyl)-6-(5-bromo-2-chlorophenyl)-2-(methylamino)pyrido[2,3-d]pyrimidin-7(8H)-one], the ΔTm at 10 µM at EpHA5 (read-out: dTm 7) is 3.2 °C; on SRPK1 (read-out: dTm 7), 0.1 °C; on DMPK1 (read-out: dTm 7), -0.1 °C; at PLK4 (read-out: dTm 7), 0.4 °C; at MARK3 (read-out: dTm 7) it was 1.7 °C; on CaMK1d (read-out: dTm 7), 0.4 °C. The ΔTm at 10 µM on GSK3B (read-out: dTm 7) turned out to be 0.3 °C; on CaMKK2 (read-out: dTm 7), 0.5 °C; on Erk7 (read-out: dTm 7) it was 0.1 °C; at JNK3 (read-out: dTm 7), 0.5 °C; at PIM3 (read-out: dTm 7), 0.9 °C.
